Assay results published in ChEMBL document CHEMBL3124875, “A facile access to novel steroidal 17-2'-(1',3',4')-oxadiazoles, and an evaluation of their cytotoxic activities in vitro” (Bioorg Med Chem Lett, 2014).
pIC50: −log10 of the molar value.

Columns and labels:
[1] = system: A-431; test: Cytotoxicity against human A431 cells at 30 uM after 72 hrs by MTT assay; type: functional; details: A-431, 72 h
[2] = system: HeLa; test: Cytotoxicity against human HeLa cells at 30 uM after 72 hrs by MTT assay; type: functional
[3] = system: MCF7; test: Cytotoxicity against human MCF7 cells at 30 uM after 72 hrs by MTT assay; type: functional; details: MCF7, 72 h
[4] = system: HeLa; test: Cytotoxicity against human HeLa cells at 10 uM after 72 hrs by MTT assay; type: functional
[5] = system: A-431; test: Cytotoxicity against human A431 cells at 10 uM after 72 hrs by MTT assay; type: functional; details: A-431, 72 h
[6] = system: A2780; test: Cytotoxicity against human A2780 cells at 30 uM after 72 hrs by MTT assay; type: functional; details: A2780, 72 h
[7] = system: MCF7; test: Cytotoxicity against human MCF7 cells at 10 uM after 72 hrs by MTT assay; type: functional; details: MCF7, 72 h
[8] = system: A2780; test: Cytotoxicity against human A2780 cells at 10 uM after 72 hrs by MTT assay; type: functional; details: A2780, 72 h
[9] = system: A-431; test: Cytotoxicity against human A431 cells after 72 hrs by MTT assay; type: functional, cell-based; details: A-431, 72 h
[10] = system: HeLa; test: Cytotoxicity against human HeLa cells after 72 hrs by MTT assay; type: functional, cell-based
[11] = system: A2780; test: Cytotoxicity against human A2780 cells after 72 hrs by MTT assay; type: functional, cell-based; details: A2780, 72 h
[12] = system: MCF7; test: Cytotoxicity against human MCF7 cells after 72 hrs by MTT assay; type: functional, cell-based; details: MCF7, 72 h

Row | SMILES | inhibition at 30 µM [1] [%] | inhibition at 30 µM [2] [%] | inhibition at 30 µM [3] [%] | inhibition at 10 µM [4] [%] | inhibition at 10 µM [5] [%] | inhibition at 30 µM [6] [%] | inhibition at 10 µM [7] [%] | inhibition at 10 µM [8] [%] | pIC50 [9] | pIC50 [10] | pIC50 [11] | pIC50 [12]
1 | CC(=O)O[C@H]1CC[C@@]2(C)C(=CC[C@H]3[C@@H]4CC[C@H]([C@@H]5OC(c6ccccc6)=NN5C(C)=O)[C@@]4(C)CC[C@@H]32)C1 | 30.6 | 23 | < 20 | < 20 | < 20 | 40.3 | < 20 | < 20 |  |  |  | 
2 | C[C@]12CC[C@H]3[C@@H](CC=C4C[C@@H](O)CC[C@@]43C)[C@@H]1CC[C@@H]2c1nnc(-c2ccccc2)o1 | 69.9 | 80.7 | 35.3 | 77.4 | 68 | 38.7 | 31.6 | 29.2 | 5.72 | 5.77 |  | 
3 | C[C@]12CC[C@H]3[C@@H](CC=C4C[C@@H](O)CC[C@@]43C)[C@@H]1CC[C@@H]2c1nnc(-c2cccnc2)o1 | 65.4 | 74.2 | 45.5 | 71.7 | 60.3 | 33.3 | 41.6 | 31.9 | 5.17 | 5.32 |  | 
4 | C[C@]12CC[C@H]3[C@@H](CC=C4C[C@@H](O)CC[C@@]43C)[C@@H]1CC[C@@H]2c1nnc(-c2ccco2)o1 | 69.2 | 77.5 | 46.6 | 74.9 | 66.6 | 37 | 42 | 37.5 | 5.74 | 5.81 |  | 
5 | CC(=O)O[C@H]1CC[C@@]2(C)C(=CC[C@H]3[C@@H]4CC[C@H](c5nnc(-c6ccccc6)o5)[C@@]4(C)CC[C@@H]32)C1 | 59.1 | 57.4 | 41.5 | < 20 | < 20 | 52 | 22.6 | < 20 | 4.59 | 4.53 | 4.54 | 
6 | CC(=O)O[C@H]1CC[C@@]2(C)C(=CC[C@H]3[C@@H]4CC[C@H](c5nnc(-c6cccnc6)o5)[C@@]4(C)CC[C@@H]32)C1 | 60.8 | 65.8 | 55.7 | 22.5 | < 20 | 48.2 | 21.8 | 22.8 | 4.63 | 4.68 |  | 4.58
7 | CC(=O)O[C@H]1CC[C@@]2(C)C(=CC[C@H]3[C@@H]4CC[C@H](c5nnc(-c6ccco6)o5)[C@@]4(C)CC[C@@H]32)C1 | 25.9 | 48.2 | 45.3 | 27.5 | < 20 | 43.5 | 26.1 | 24.1 |  |  |  | 
8 | C[C@]12CC[C@H]3[C@@H](CC=C4C[C@@H](O)CC[C@@]43C)[C@@H]1CC[C@@H]2/C=N/NC(=O)c1ccccc1 | 38.1 | 90.4 | 48 | 72.2 | < 20 | 60.9 | < 20 | 32.6 |  | 5.33 | 4.69 | 
9 | C[C@]12CC[C@H]3[C@@H](CC=C4C[C@@H](O)CC[C@@]43C)[C@@H]1CC[C@@H]2/C=N/NC(=O)c1cccnc1 | 71.8 | 90.9 | 82.9 | 80.5 | 40.1 | 66.4 | < 20 | 23.5 | 4.89 | 5.26 | 4.95 | 4.72
10 | C[C@]12CC[C@H]3[C@@H](CC=C4C[C@@H](O)CC[C@@]43C)[C@@H]1CC[C@@H]2/C=N/NC(=O)c1ccco1 | 26.1 | 91.2 | 53.2 | 78 | 24.9 | 46.4 | 21.1 | 21.1 |  | 5.25 |  | 4.55
11 | CC(=O)O[C@H]1CC[C@@]2(C)C(=CC[C@H]3[C@@H]4CC[C@H](/C=N/NC(=O)c5ccccc5)[C@@]4(C)CC[C@@H]32)C1 | 45.5 | 90.2 | 44.4 | 71.2 | 45.1 | 89.2 | < 20 | 44.3 |  | 5.30 | 4.94 | 
12 | CC(=O)O[C@H]1CC[C@@]2(C)C(=CC[C@H]3[C@@H]4CC[C@H](/C=N/NC(=O)c5cccnc5)[C@@]4(C)CC[C@@H]32)C1 | 37 | 88 | 28.7 | 65.8 | 37.1 | 84.3 | < 20 | 27.8 |  | 5.19 | 4.78 | 
13 | CC(=O)O[C@H]1CC[C@@]2(C)C(=CC[C@H]3[C@@H]4CC[C@H](/C=N/NC(=O)c5ccco5)[C@@]4(C)CC[C@@H]32)C1 | 40.4 | 91.2 | 55.1 | 77.8 | 39 | 70.5 | 26.7 | 26.2 |  | 5.16 | 4.95 | 4.92
14 | CC(=O)O[C@H]1CC[C@@]2(C)C(=CC[C@H]3[C@@H]4CC[C@H]([C@H]5OC(c6ccccc6)=NN5C(C)=O)[C@@]4(C)CC[C@@H]32)C1 | 41.7 | 71.3 | 26.7 | < 20 | 22.7 | 53.5 | < 20 | 20.2 |  | 4.67 | 4.56 | 
